{
  "source": "patent US20140294856A1",
  "about": "“COMBINATION TREATMENT COMPRISING A HDAC6 INHIBITOR AND AN AKT INHIBITOR” (priority 2011, published 2014)",
  "key": {"[1]": {"system": "panel of 19 cancer cell lines", "assay": "Growth inhibition, SRB assay, 72 hours", "assay_type": "cell-based"}, "HCT116 xenograft": {"system": "HCT116 xenograft", "assay": "[18F]FLT-PET tumour uptake", "assay_type": "in vivo, mice", "experimental": "FIG. 6. [18F]-FLT uptake at 24 h and 48 h following a single injection I.P. of HDAC-C1A at 40 mg/kg in HCT116 xenograft model. A. PET/CT (bottom) and corresponding CT (top) images of the [18]-FLT uptake. […] The tumour is indicated by an arrow. B. Area under the curve data. The results are the mean+/−SEM of at least 4 animals per group.\nFIG. 13. […] A. relative tumour volume to day 1. […] B. Corresponding body weights throughout the course of the experiment. […] C. Time activity curve represent [18F]FLT uptake over 60 minutes. Results are mean of at least 3 animals. D. Area under the curve, [18F]FLT uptake in the tumour over 60 minutes. E. NUV60, [18F]FLT uptake in the tumour at 60 minutes. […] The levels of total AKT are represented as loading control.\nFIG. 16. [18F]FLT uptake following treatment with BEZ235 and in combination with HDAC-C1A after 48 hours in a HCT116 xenograft model. Mice were treated with either BEZ235 alone at 20 mg/kg/day for 2 days P.O., with 1HDACC1A at 20 mg/kg/day for 2 days I.P. or with a combination HDAC-C1A (20 mg/kg/day for 1 or 2 days)+BEZ-235 (20 mg/kg/day for 1 or 2 days). BEZ235 was given first and 30 min later, mice received an injection of HDAC-C1A. A. time activity curve represent [18F]FLT uptake over 60 minutes. Results are mean of at least 3 animals. B. Area under the curve, [18F]FLT uptake in the tumour over 60 minutes. C. NUV60, [18F]FLT uptake in the tumour at 60 minutes. D. Cross section (axial plane) of mice representative of different treatment cohorts. The top pictures show [18F]FLT uptake pictures (PET/CT), the bottom represent the corresponding CT scan. The arrows point the tumour.\nWe also assessed the potential of [^18F]fluorothymidine positron emission tomography ([^18F]FLT-PET) to measure early response to HDAC-C1A treatment in HCT116 xenograft bearing mice (FIG. 6). There was a 2-fold decrease in tumour [^18F]FLT uptake in animals treated continuously for 48 h compared to vehicle treated controls; the area under the normalized [^18F]FLT time versus activity curve was 117±6.9 before treatment and decreased to 106±5.5 (P=0.02) at 24 hours and 54±5 (P=0.0001) at 48 hours after initiating treatment (FIG. 6.B).\nThe efficacy of the combination HDAC-C1A (20 mg/kg/day) and BEZ235 ([…]) could be monitored with [^18F]FLT-PET in HCT116 tumour bearing mice as early as 24H-48H. There was a 1.7-fold decrease in tumour [^18F]FLT uptake in animals treated continuously for 24 h-48 h compared to vehicle treated controls; the area under the normalized [^18F]FLT time versus activity curve was 542±17 before treatment and decreased to 312±22 (P=0.0002) at 24-48 hours after initiating treatment (FIG. 16.B)."}, "HCT116 cells [2]": {"system": "HCT116 cells", "assay": "Acetylation biomarkers by western blotting (with washout)", "assay_type": "cell-based, human", "experimental": "FIG. 1. HDAC-C1A irreversible activity. A. […] inhibitory activity of HDAC-C1A was tested using HeLa nuclear extracts and compared to the negative (reversible) control HDAC-C1B. B Growth inhibitory effect of the different compounds in HCT-116 cells at indicated time and compared to growth inhibitory after 72 hours of incubation.\n(§1) HSP90 protein expression was not altered (FIG. 2)."}, "HCT116 cells [3]": {"system": "HCT116 cells", "assay": "Phospho-AKT levels by western blotting", "assay_type": "cell-based, human", "conditions": "10 μM"}, "HDAC6": {"biological_target": "HDAC6 (Homo sapiens, UniProt Q9UBN7)", "sequence (Q9UBN7 whole entry)": "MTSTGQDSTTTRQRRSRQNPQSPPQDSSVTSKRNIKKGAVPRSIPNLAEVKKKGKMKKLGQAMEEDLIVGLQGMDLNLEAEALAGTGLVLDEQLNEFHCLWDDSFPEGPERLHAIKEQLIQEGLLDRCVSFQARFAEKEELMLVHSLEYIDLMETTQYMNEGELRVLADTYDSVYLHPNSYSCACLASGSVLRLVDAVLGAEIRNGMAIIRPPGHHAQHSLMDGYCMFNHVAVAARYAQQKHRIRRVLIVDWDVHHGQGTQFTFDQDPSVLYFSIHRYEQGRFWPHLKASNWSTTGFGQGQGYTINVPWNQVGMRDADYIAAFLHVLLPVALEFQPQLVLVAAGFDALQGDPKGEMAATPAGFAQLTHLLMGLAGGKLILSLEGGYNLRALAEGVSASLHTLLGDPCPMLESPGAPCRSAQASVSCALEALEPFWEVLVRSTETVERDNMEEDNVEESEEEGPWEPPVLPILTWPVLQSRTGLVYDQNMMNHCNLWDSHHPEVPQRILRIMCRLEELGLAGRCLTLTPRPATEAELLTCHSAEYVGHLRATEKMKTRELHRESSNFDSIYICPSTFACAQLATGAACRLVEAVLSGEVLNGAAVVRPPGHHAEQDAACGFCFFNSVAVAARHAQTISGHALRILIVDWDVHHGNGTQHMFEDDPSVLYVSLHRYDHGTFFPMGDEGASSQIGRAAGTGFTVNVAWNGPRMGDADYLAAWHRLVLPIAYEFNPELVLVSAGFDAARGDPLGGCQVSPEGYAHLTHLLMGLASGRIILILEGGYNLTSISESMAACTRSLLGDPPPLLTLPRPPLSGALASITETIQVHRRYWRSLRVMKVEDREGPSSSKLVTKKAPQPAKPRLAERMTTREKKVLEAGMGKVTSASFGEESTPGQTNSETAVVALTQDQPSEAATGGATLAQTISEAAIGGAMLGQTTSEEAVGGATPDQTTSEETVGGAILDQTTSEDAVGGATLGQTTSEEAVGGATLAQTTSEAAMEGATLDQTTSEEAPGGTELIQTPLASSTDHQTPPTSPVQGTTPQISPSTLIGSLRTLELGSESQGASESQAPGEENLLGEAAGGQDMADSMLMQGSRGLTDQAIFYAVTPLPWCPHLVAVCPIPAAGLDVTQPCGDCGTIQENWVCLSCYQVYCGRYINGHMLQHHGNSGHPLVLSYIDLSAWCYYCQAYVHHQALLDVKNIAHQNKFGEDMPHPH", "assay": "Enzyme inhibition activity, Fluor-de-Lys kit", "assay_type": "biochemical", "from_the_text": "FIG. 20 (Table 1): Enzyme inhibition activity using HeLa nuclear extract and the Fluor-de-Lys kit.\nas §1"}, "SH-SY5Y": {"system": "SH-SY5Y", "assay": "Growth inhibition, SRB assay, 72 hours", "assay_type": "cell-based", "conditions": "SH-SY5Y neuroblastoma"}, "HCT116 cells [4]": {"system": "HCT116 cells", "assay": "Combination studies, SRB assay, combination index (CalcuSyn)", "assay_type": "cell-based, human"}, "[5]": {"assay": "Pharmacokinetics following a single injection", "assay_type": "in vivo", "experimental": "FIG. 4. Pharmacokinetic profile of HDAC-C1A following a single injection at 20 mg/kg.\nFIG. 22 (Table 3): Pharmacokinetic data of HDAC-C1A following a single injection.\nThe drug was stable after oral, parenteral and intravenous administration for 24 h (last time point examined). […] The Cma and AUC0-24h following i.p. injection (20 mg/kg) were 3.2 μg/mL and 11.2 μg/mL*h, respectively. […] The acid instability of HDAC-C1A could therefore be improved by enteric coating as a means to avoid breakdown in the stomach. […] HDAC-C1A was also tested in HCT116 human colon cancer xenograft model using a refined dose and scheduling. […] This dose was non-toxic (no reduction in body weight) (FIG. 5.D). The acetylated form of α-tubulin (biomarker of response to HDAC6 inhibition) could be observed after 14 days of treatment and could be detected as early as 6 hours after the 1st injection (FIG. 5.E.). The acetylated form of Histone 3 (biomarker of response of class I histones) could be observed as early as 2 hours after the 1st injection and remain after 14 days of treatment (FIG. 5.E)."}, "γH2AX": {"system": "γH2AX", "assay": "γH2AX foci formation (DNA damage marker)", "conditions": "in vitro and in vivo"}, "A549 cells": {"system": "A549 cells", "assay": "Impact of BSO (GSH depletion) on growth inhibition, SRB assay", "assay_type": "cell-based", "conditions": "10 μM BSO for 24 hours"}},
  "data": [
    {"smiles": "CC(/C=C/C(=O)NO)=C\\c1ccc(NS(=O)(=O)c2ccc(N(CCCl)CCCl)cc2)cc1", "note": "[HDAC-C1A]", "values": [
      {"measurement": "mean GI50", "setting": "[1]", "result": "2 ± 0.4", "unit": "µg/mL"},
      {"measurement": "[18F]FLT-PET in comparison to control animals", "setting": "HCT116 xenograft; 48 H, HDAC-C1A 40 mg/kg combined with API-2 1 mg/kg", "result": "unremarkable"},
      {"measurement": "area under the normalized [18F]FLT time versus activity curve", "setting": "HCT116 xenograft; 24 hours after initiating treatment, 117±6.9 before treatment", "result": "106±5.5"},
      {"measurement": "area under the normalized [18F]FLT time versus activity curve", "setting": "HCT116 xenograft; 48 hours after initiating treatment, 117±6.9 before treatment", "result": "54±5"},
      {"measurement": "fold decrease in tumour [18F]FLT uptake vs vehicle", "setting": "HCT116 xenograft; HDAC-C1A 20 mg/kg/day combined with BEZ235 25 mg/kg/day, 24 h-48 h", "result": 1.7, "unit": "fold"},
      {"measurement": "area under the normalized [18F]FLT time versus activity curve", "setting": "HCT116 xenograft; HDAC-C1A combined with BEZ235, 24-48 hours, 542±17 before treatment", "result": "312±22"},
      {"measurement": "fold decrease in tumour [18F]FLT uptake vs vehicle", "setting": "HCT116 xenograft; treated continuously for 48 h, 40 mg/kg", "result": 2, "unit": "fold"},
      {"measurement": "HSP90 protein expression", "setting": "HCT116 cells [2]", "result": "not altered"},
      {"measurement": "acetylation markers at low concentration and early time point", "setting": "HCT116 cells [2]; 1 μM and 4 hours", "result": "increase of acetyl-tubulin and other markers of HDAC6 inhibition"},
      {"measurement": "acetyl form of HSP90", "setting": "HCT116 cells [2]; 4 h and 24 h, 1 μM and 10 μM", "result": "dose and time dependent increase"},
      {"measurement": "acetylation of histone H3, H4 and α-tubulin after washout", "setting": "HCT116 cells [2]; treatment 4 hours, then washout", "result": "maintained at 4 hours after washout"},
      {"measurement": "fold increase of P-AKT", "setting": "HCT116 cells [3]; 4 h", "result": 1.5, "unit": "fold"},
      {"measurement": "fold increase of P-AKT", "setting": "HCT116 cells [3]; 24 h", "result": 2, "unit": "fold"},
      {"measurement": "IC50 for HDAC6", "setting": "HDAC6", "result": 0.063, "unit": "µg/mL"},
      {"measurement": "GI50", "setting": "SH-SY5Y", "result": 0.09, "unit": "µg/mL"},
      {"measurement": "concentration of LY-294002 needed to synergise", "setting": "HCT116 cells [4]", "result": 1, "unit": "µM"},
      {"measurement": "lowest concentration synergising with rapamycin", "setting": "HCT116 cells [4]; ED50", "result": "≥ 1.9", "unit": "µM"},
      {"measurement": "AUC0-24h", "setting": "[5]; given orally", "result": 94000, "unit": "ng·h/mL"},
      {"measurement": "Cmax", "setting": "[5]; given orally", "result": 700, "unit": "ng/mL"},
      {"measurement": "AUC0-24h", "setting": "[5]; i.p. injection 20 mg/kg", "result": 11200, "unit": "ng·h/mL"},
      {"measurement": "Cmax", "setting": "[5]; i.p. injection 20 mg/kg", "result": 3200, "unit": "ng/mL"},
      {"measurement": "dose proportionality of pharmacokinetics", "setting": "[5]; i.p. injection, up to 160 mg/kg", "result": "dose proportionate"},
      {"measurement": "oral bioavailability", "setting": "[5]; in vivo, po", "result": 16, "unit": "%"},
      {"measurement": "stability after administration", "setting": "[5]; oral, parenteral and intravenous, 24 h last time point", "result": "stable"},
      {"measurement": "γH2AX foci formation", "setting": "γH2AX", "result": "time and a dose dependent increase"},
      {"measurement": "impact of BSO on growth inhibition (GI50 ratio)", "setting": "A549 cells", "result": "No difference"}
    ]}
  ]
}
